Converted amounts (≈) assume the structure as drawn. Bounds are passed on as bounds.

Series [1] relates to murine leukemic L1210 cells. Description: growth inhibition of murine leukemic L1210 cells in culture. The following applies: Mus musculus, RPMI 1640, 20% calf serum, 37° C., read-out: inhibition of control growth; for inhibition at 0.5 µg/mL: 0.5 μg/ml. Format: cell-based. How it is done:
For example, L1210 cells were inoculated into a RPMI 1640 medium (Nissui, Rosewell Park Memorial Institute 1640) containing 20% calf serum at the cell density of 5×10^4 cells/ml and the compound in the present invention was simultaneously added to the medium at the concentration of 0.1 and 0.5 μg/ml and cultivated at 37° C. in a CO2 incubator.

Series [2] deals with biosynthesis of RNA in L1210 cells. Description: RNA biosynthesis in L1210 cells (incorporation of 14C-uridine into acid-insoluble materials). Format: cell-based, murine. Conditions: Mus musculus, L1210, 1 h; 60 min, 37° C., 14C-uridine 0.05 μCi/ml; read-out: IC50 of the incorporation of radioactivity into acid-insoluble materials, 14C-uridine. On the procedure: (§1) (2) L1210 cells were inoculated at 5×10^5 cells/ml into a RPMI 1640 medium containing 10% calf serum and cultivated at 37° C. for 1 to 2 hours in a CO2 incubator. The compound in the present invention at various concentrations and ^14 C-thymidine (0.05 μCi/ml) or ^14 C-uridine (0.05 μCi/ml) were added and incubated at 37° C. for 60 min. After stopping the pulse-labeling by addition of 10% trichloroacetic acid (TCA) to the reaction mixture, acid-insoluble materials were precipitated, washed 3 times with 5 to 10% TCA, and dissolved in a small amount of formic acid, and then the radioactivity of the solution was determined. Effects on the biosynthesis of DNA and RNA were shown by the 50% inhibition concentration (IC50) of the incorporation of radioactivity into acid-insoluble materials.

A short description of a further series: toxicity in mice. The series is classed as in vivo. The following applies: in words. On the procedure:
(§2) For example, BDF1 mice were inoculated intraperitoneally with 1×10^6 cells/mouse. 24 hours after inoculation, the compound was intraperitoneally injected once daily for 10 days consecutively. […] At the dose of 10 mg/kg/day weight loss was observed, but general toxicity was less than daunomycin.

The subject of series [3] is biosynthesis of DNA in L1210 cells. The experiment in a line: DNA biosynthesis in L1210 cells (incorporation of 14C-thymidine into acid-insoluble materials). The following applies: Mus musculus, L1210, 1 h; 60 min, 37° C., 14C-thymidine 0.05 μCi/ml; read-out: IC50 of the incorporation of radioactivity into acid-insoluble materials, 14C-thymidine. Format: cell-based, murine. How it is done:
as §1

The test system of another series is Sal. typhimurium. The experiment in a line: mutagenicity by the Ames' test.
Another series relates to leukemic L1210. The experiment in a line: antitumor activity in leukemic L1210-bearing mice. Format: in vivo, BDF1 mice. The following applies: in words. On the procedure: as §2

In the case of `COc1ccc(O)c2c1C(=O)c1c(O)c3c(c(O)c1C2=O)C[C@@](O)(C(C)O)C[C@@H]3O[C@H]1C[C@H](NC=O)[C@H](O)[C@H](C)O1` (stereo partly shown) [N-formyl-1-hydroxy-13-dihydrodaunomycin], in series [1], the inhibition at 0.5 µg/mL stood at 16%. Besides, the IC50 in series [2] and in series [3] was > 2.5 µg/mL in each case. Moreover, the “toxicity in mice compared with daunomycin” value in “toxicity in mice” is listed as “lower toxicity than daunomycin”. For the same compound, the “mutagenicity relative to daunomycin” value in the series with Sal. typhimurium is reported as “decrease about a half of daunomycin”. For the same compound, the “antitumor activity in leukemic L1210-bearing mice” value in the series on leukemic L1210 is “marked antitumor activity”.

In the case of `COc1ccc(O)c2c1C(=O)c1c(O)c3c(c(O)c1C2=O)C[C@@](O)(C(C)O)C[C@@H]3O[C@H]1C[C@H](N)[C@H](O)[C@H](C)O1` (stereo partly shown) [1-hydroxy-13-dihydrodaunomycin], in series [1] (0.1 μg/ml), the inhibition at 0.1 µg/mL is 10.8%. For the same compound, the inhibition at 0.5 µg/mL in series [1] was 52.2%. For the same compound, the IC50 in series [2] came to 1.8 µg/mL (≈ 3.3 µM); in series [3], 3.8 µg/mL (≈ 6.97 µM). For the same compound, the “toxicity in mice compared with daunomycin” value in the series “toxicity in mice” is reported as “lower toxicity than daunomycin”. In addition, the “mutagenicity relative to daunomycin” value in the series on Sal. typhimurium is reported as “decrease about a half of daunomycin”. Moreover, the “antitumor activity in leukemic L1210-bearing mice” value in the series on leukemic L1210 is given as “marked antitumor activity”.
